The structures appear in SMILES notation.

Test [1] relates to TNFα release from LPS activated THP-1 cells or PBMC's. Nature of the test: p38 Functional Assay (TNFα release after LPS). The class given is cell-based. As to conditions: Homo sapiens, 1 h pre-treatment, 0.3% DMSO, read-out: EC50 (inhibition of TNFα release). Here is the method: Inhibition of cellular p38 depresses the release of TNFα, a functional response which is quantified by measurement of the amount of TNFα in the supernatants of LPS activated THP-1 cells (an immortalised monocytic cell line) or peripheral blood mononuclear cells (PBMC's) isolated from freshly drawn human blood.
Cells seeded in 96 well plates are pre-treated by the addition of p38 inhibitors for 1 h followed by addition of lipopolysaccharide (LPS) to activate cytokine production and release. The amount of TNFα released into the cell supernatants is quantified using an R&D Systems enzyme linked immunosorbant assay (ELISA) kit (product DY210) following the manufacturers instructions.
Compounds are diluted in DMSO prior to addition, the final DMSO concentration in the assay being 0.3%. The EC50 is defined as the concentration at which a given compound achieves 50% inhibition of the control.

Test [2] concerns BAL cell influx induced by tobacco smoke. Nature of the test: Tobacco smoke induced pulmonary inflammation, mouse model of COPD inflammation. The class given is in vivo. As to conditions: mice, intranasal, 30, 100 or 300 μg/kg, 4 days TS, BAL 24 h after final exposure (FIG. 1). On the procedure: Pre-clinical mouse model of COPD inflammation—Tobacco smoke induced pulmonary inflammation. […] In this exposure protocol, mice were exposed in groups of 5 in individual clear polycarbonate chambers (27 cm×16 cm×12 cm). The TS from the cigarettes was allowed to enter the exposure chambers at a flow rate of 100 ml/min. In order to minimise any potential problems caused by repeated exposure to a high level of TS (6 cigarettes), the exposure of the mice to TS was increased gradually over the exposure period to a maximum of 6 cigarettes. The exposure schedule used for 4 days was as follows: Bronchoalveolar lavage was performed as follows: the trachea was cannulated using a Portex nylon intravenous cannula (pink luer fitting) shortened to approximately 8 mm. […] The cell pellet was re-suspended in a known volume of PBS and total cell numbers calculated by counting a stained (Turks stain) aliquot under a microscope using a haemocytometer. […] When dried and cover-slipped, differential cells were counted using light microscopy. Up to 400 cells were counted by unbiased operator using light microscopy. […] All results are presented as individual data points for each animal and the mean value was calculated for each group. […] Percentage inhibitions were automatically calculated within the Excel spreadsheets for the cell data using the formula below: […]

The target in another test is T1, p38α (Homo sapiens, UniProt Q16539).
T1 construct: purchased Calbiochem 559324; host or cells: E. coli
T1 sequence (Q16539 whole entry): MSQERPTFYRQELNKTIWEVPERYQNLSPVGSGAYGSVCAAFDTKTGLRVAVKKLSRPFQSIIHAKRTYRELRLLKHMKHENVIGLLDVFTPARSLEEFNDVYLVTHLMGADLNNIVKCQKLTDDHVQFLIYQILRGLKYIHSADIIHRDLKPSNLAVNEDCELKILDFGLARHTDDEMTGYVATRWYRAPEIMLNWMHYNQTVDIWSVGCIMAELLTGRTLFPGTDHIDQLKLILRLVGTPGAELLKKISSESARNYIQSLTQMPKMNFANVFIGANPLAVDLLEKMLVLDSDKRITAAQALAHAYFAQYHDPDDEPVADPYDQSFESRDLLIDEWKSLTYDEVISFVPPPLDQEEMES
Nature of the test: p38 Kinase Assay (ATF-2 phosphorylation ELISA). As to conditions: 2 h pre-incubation, ATP 250 μM, 1% DMSO; read-out: p38α inhibition (IC50 values). The class given is biochemical. On the procedure:
Human recombinant p38 enzyme expressed in E. coli and activated by incubation with MKK6 enzyme (Calbiochem #559324) is used as source of enzyme activity.
The assay is carried in high binding, clear, flat bottom 96 well assay plates which have been coated with recombinant ATF-2 (Biosource #PHF0043). Test compounds are incubated with p38 kinase for 2 h prior to initiating the kinase assay by the addition of ATP to obtain an assay concentration of 250 μM. Phosphorylation of ATF-2 is detected and quantified using an ELISA. This consists of sequential incubation in the presence of anti-phospho-ATF2, biotinylated anti-IgG and streptavidin-HRP. Incubation with an HRP chromogenic substrate (TMB) results in absorbance that is proportional to the amount of phosphorylated substrate produced. Absorbance is detected using a multiwell plate reader.
Compounds are diluted in DMSO prior to addition to assay buffer, the final DMSO concentration in the assay being 1%.
The IC50 is defined as the concentration at which a given compound achieves 50% inhibition of control.

In general, EC50 refers to the midpoint of the concentration-response curve. By IC50 is commonly meant the concentration that inhibits the measured activity by half. `Cc1ccc(-n2nc(C(C)(C)C)cc2NC(=O)Nc2ccc(Sc3ccc4nnc(-c5cccc(OCCN6CCOCC6)c5)n4c3)cc2)cc1` [Example 10, 1-(5-tert-Butyl-2-p-tolyl-2H-pyrazol-3-yl)-3-(4-{3-[3-(2-morpholin-4-yl-ethoxy)-phenyl]-[1,2,4]triazolo[4,3-a]pyridin-6-ylsulfanyl}-phenyl)-urea]: in test [1], the concentration for a half-maximal effect (EC50) fell in the range of 10 to 100 nM. The “BAL cell influx induced by TS” value in test [2] is “significantly inhibited”. In addition, at p38α, the half-inhibitory concentration (IC50) lay within 10 to 100 nM.

As for `Cc1ccc(-n2nc(C(C)(C)C)cc2NC(=O)Cc2ccc(Oc3ccc4nnc(C(C)C)n4c3)cc2)cc1` [Example 23, N-(5-tert-Butyl-2-p-tolyl-2H-pyrazol-3-yl)-2-[4-(3-isopropyl-[1,2,4]triazolo[4,3-a]pyridin-6-yloxy)-phenyl]-acetamide], the EC50 in test [1] was less than 10 nM. The concentration for half-maximal inhibition (IC50) on p38α is less than 10 nM.
